According to US10214502B2, “Method of inhibiting apolipoprotein-E expression while increasing expression of at least one of LDL-receptor protein or AbcA1 protein comprising administering a small compound” (California State University, Fresno, priority 2016, dated 2019):
Entries after “also recorded” stand apart in the source; their conditions may differ.

How the values were obtained:
apoE3 = assay: ELISA of apoE3 levels in conditioned media of compound-treated mouse cortical astrocyte cells; assay type: cell-based; conditions: for ApoE3 Levels in Cell Media, Average of Three Tests / ApoE3 Levels in Cell Media, Test 1 / ApoE3 Levels in Cell Media, Test 2 / ApoE3 Levels in Cell Media, Test 3: 10 μM compound, 24 hours, normalized to cell protein, relative to DMSO treated cells
Experimental: ApoE inhibition can be readily determined by any one of several assays and techniques known to those of ordinary skill in the art, including the enzyme-linked immunosorbant assay (ELISA). In the experimental results shown in Table 2 and FIG. 5, the ELISA assay was carried out on cortical astrocyte cells from mice. Astrocyte cells produce apoE, LDLR and AbcA1 proteins.
The experiments involved treating mouse cortical astrocyte cells with the claimed compounds at 10 μM concentration for an incubation time of 24 hrs. DMSO solvent was used as a negative control, because the compounds were dissolved in DMSO when applied to the cells.
The ELISA technique involves immobilizing an apoE-specific capture antibody to a 96-well plate, addition of sample (conditioned medium from mouse cortical astrocyte cells treated with the compound for 24 hours), and detection of the bound apoE using a second apoE-specific biotinylated antibody and streptavidin-HRP.
The Mabtech ELISA kit detects the presence of the three apoE isoforms: apoE2, apoE3, and apoE4.
To obtain the data shown in Table 2 and FIG. 5, the mouse cortical astrocyte cells were maintained in DMEM medium (Invitrogen) supplemented with 10 mM HEPES, 1 mM sodium pyruvate, 4.5 g/L glucose, 1% penicillin/streptomycin, and 10% fetal bovine growth serum (Invitrogen) at 37° C., with 5% CO2.
The cells (6×10^4 cells/24-well plate) were grown for 1 day in RPMI, followed by a 24 hour equilibration in serum-free Opti-MEM (Life Technologies). Treatments were carried out in triplicate with […] of fresh Opti-MEM containing 10 μM of compound or vehicle (0.1% DMSO) for 24 hours. […] ApoE concentration in the sample was calculated based on a standard curve derived using known amounts of purified apoE (from Biodesign).
The protein levels in the cells in the 24-well plates were measured using BCA Protein Assay Kit (from Pierce) and used to normalize the data. […] Sample apoE3 concentrations were represented relative to the DMSO treated cells.
The bars in FIG. 5 reflect the respective mean level apoE3 in the media for each compound with an indication of one […].

LDLR = assay: SDS-PAGE/Western blot of LDLR expression in E3 astrocyte cells; assay type: cell-based, mouse; conditions: 10 μM, 24 hrs, Western blot, FIGS. 6 and 7
Experimental: Experiments were set up to test whether the claimed compounds increase LDLR expression in cortical astrocyte cells. The experiments involved treating mouse cortical astrocyte cells (E3 astrocyte cells) with the claimed compounds at 10 μM concentration for an incubation time of 24 hrs. DMSO solvent was used as a negative control, because the compounds were dissolved in DMSO when applied to the cells.
(§1) Western blot protocol and analysis was used to determine the LDLR levels in the E3 astrocyte cells. The western blot, otherwise known as a protein immunoblot, is a widely used analytical technique used to detect specific proteins in a cell culture or tissue sample. It uses gel electrophoresis to separate proteins by 3-D structure or denatured proteins by the length of the polypeptide. The proteins are then transferred to a membrane (typically nitrocellulose or PVDF), where they are stained with antibodies specific to the target protein. […] FIGS. 6 and 7 show gel images showing the effects the claimed compounds have on the target proteins. The protein bands show the presence and amount of each target protein present in the media from treated cells (compound numbers shown in the column headers).
(§2) In this case, after the 24-hour culture period, the treated cell media from cells treated with each respective compound were run by electrophoresis on polyacrylamide gel containing sodium dodecyl sulfate (SDS). The proteins from the SDS-PAGE process were then transferred to a nitrocellulose […] and stained.
(§3) FIGS. 6 and 7 show the presence of the following proteins in mouse E3 astrocyte cells: AbcA1, LDLR, ApoE3, and GAPDH. The GAPDH protein serves as the loading control protein for the western blot analysis. For each of the claimed compounds, FIGS. 6 and 7 show three samples run to determine the presence and amount of each indicated protein. The three samples for each treatment compound are indicated by the line under the compound number—the line stretches across three columns of protein bands.
(§4) The E3 astrocyte cells (1.6×10^4 cells/96-well plate) were grown for 1 day in RPMI, followed by a 24 hour equilibration in serum-free Opti-MEM (Life Technologies). Treatments were carried out in triplicate with […] of fresh Opti-MEM containing 10 μM of compound or vehicle (0.1% DMSO) for 24 hours. After the incubation time, the cellular media was collected as samples.
(§5) The collected samples were prepared for SDS-PAGE and western blot analysis by centrifuging and then extracting the protein by TCA-precipitation. The extracted protein was then resuspended in a Tris buffer.
(§6) After incubation and collection, the samples were run on a SDS-polyacrylamide gel (10% SDS). The SDS-polyacrylamide gel comprises the following:
(§7) Each sample was prepared to run on the SDS-polyacrylamide gel. About 20 μL of each sample was prepared to be run in the gel. The samples were prepared comprising the following:
(§8) The SDS-PAGE process was run with SDS-PAGE running buffer (Tris base, glycine, and 10% SDS) at 150 V until the dye front reached the bottom of the gel.
(§9) For the western blot portion of the analysis, the separated protein bands in the gel are then transferred to a nitrocellulose membrane by methods well known in the art. Following the western blot transfer, the blot is rinsed several times with dH2O to remove the salts. After blocking unreacted sites on the nitrocellulose membrane, all protein bands are stained with 0.5% Ponceau S (0.5 g Ponceau S, 1 ml Glacial HAc, 99 ml dH2O) and the target protein antibody.
(§10) The antibodies used for staining AbcA1 were obtained from Novus (NB100-2068). The antibodies used for staining LDLR were obtained from MBL International (JM-3839). The antibodies used for staining intracellular apoE were obtained from Meridian Life Science (K74180B). The antibodies used for staining GAPDH were obtained from Santa Cruz (sc-25778).

AbcA1 = assay: SDS-PAGE/Western blot of AbcA1 expression in E3 astrocyte cells; assay type: cell-based, mouse; conditions: 10 μM, 24 hrs, Western blot, FIGS. 6 and 7
Description: as §1, §2, §3
AbcA1 protein plays a key role in regulating cholesterol in biological systems and therefore affects amyloid beta plaque formation. The goal of the biological screen (results shown in FIGS. 6 and 7) was to find compounds that prevent amyloid beta (Aβ) plaque formation, one of the deleterious causes of Alzheimer's Disease.
as §4, §5, §6, §7, §8, §9, §10

SMILES	ApoE3 Levels in Cell Media, Average of Three Tests (apoE3)	ApoE3 Levels in Cell Media, Test 1 (apoE3)	ApoE3 Levels in Cell Media, Test 2 (apoE3)	ApoE3 Levels in Cell Media, Test 3 (apoE3)	LDLR expression (amount of LDLR protein) compared to the DMSO control (LDLR)	AbcA1 expression compared to the DMSO control (AbcA1)	apoE (apoE3) expression compared to the control DMSO, in words (apoE3; 10 μM, 24 hrs, ELISA of media)
CCC(C)NC(=O)c1ccc2ccccc2c1 (centres unmarked) [Compound 88, naphthalene-2-carboxylic acid sec-butylamide]	100.678 % of the DMSO control	104.1856 % of the DMSO control	95.94 % of the DMSO control	101.9038 % of the DMSO control	increase	–	–
CC(C)CNC(=O)c1ccc2ccccc2c1 [Compound 89]	129.8502 % of the DMSO control	110.4906 % of the DMSO control	131.1414 % of the DMSO control	147.9187 % of the DMSO control	increase	–	–
O=S(=O)(c1ccc2ccccc2c1)N1CCOCC1 [Compound 95]	96.13 % of the DMSO control	86.87 % of the DMSO control	92.02 % of the DMSO control	109.5 % of the DMSO control	increase	–	–
O=S(=O)(c1ccc2ccccc2c1)N1CCCC1 [Compound 96]	118.6531 % of the DMSO control	104.9618 % of the DMSO control	132.594 % of the DMSO control	118.4035 % of the DMSO control	increase	–	–
O=S(=O)(c1ccc2ccccc2c1)N1CCCCC1 [Compound 97]	86.86 % of the DMSO control	90.22 % of the DMSO control	90.28 % of the DMSO control	80.08 % of the DMSO control	increase	–	–
O=C(Nc1ccccc1)c1ccc2ccccc2c1 [Compound 98]	76.25 % of the DMSO control	74.22 % of the DMSO control	79 % of the DMSO control	75.5362 % of the DMSO control	–	decrease	–
O=S(=O)(Nc1ccc(Br)cc1)c1ccc2ccccc2c1 [Compound 103]	109.1222 % of the DMSO control	84.78 % of the DMSO control	113.1319 % of the DMSO control	129.4577 % of the DMSO control	increased	increase	–
O=S(=O)(NCc1ccccc1)c1cccc2ccccc12 [Compound 125]	88.78 % of the DMSO control	82.44 % of the DMSO control	91.39 % of the DMSO control	92.51 % of the DMSO control	increased	increase	–
CCN(CC)S(=O)(=O)c1ccc2ccccc2c1 [Compound 129]	81.14 % of the DMSO control	80.4063 % of the DMSO control	82.82 % of the DMSO control	80.19 % of the DMSO control	–	decrease	–
CC(C)CNS(=O)(=O)c1ccc(-c2ccccc2)cc1 [Compound 133]	73.18 % of the DMSO control	81.61 % of the DMSO control	72.54 % of the DMSO control	65.4 % of the DMSO control	–	decrease	–
O=S(=O)(c1ccc(-c2ccccc2)cc1)N1CCOCC1 [Compound 134]	84.75 % of the DMSO control	81.07 % of the DMSO control	90.3 % of the DMSO control	82.89 % of the DMSO control	increased	increase	–
O=S(=O)(NC1CCCCC1)c1ccc(-c2ccccc2)cc1 [Compound 136]	89.73 % of the DMSO control	89.58 % of the DMSO control	91.2 % of the DMSO control	88.41 % of the DMSO control	increase	–	–
CC(NS(=O)(=O)c1ccc(-c2ccccc2)cc1)c1ccccc1 (centres unmarked) [Compound 137]	88.63 % of the DMSO control	79.41 % of the DMSO control	86.65 % of the DMSO control	99.83 % of the DMSO control	increase	–	–
CCCCN(CCCC)Cc1ccc2ccccc2c1 [Compound 139]	74.779 % of the DMSO control	67.21 % of the DMSO control	81.69 % of the DMSO control	75.44 % of the DMSO control	increased	decreases AbcA1 expression significantly; also recorded: decrease	–
c1ccc(C(c2ccccc2)(c2ccc3ccccc3c2)N2CCOCC2)cc1 [Triarylmethyl Amine Compound No. 38, reference compound]	79.07 % of the DMSO control	76.4862 % of the DMSO control	92.35 % of the DMSO control	68.38 % of the DMSO control	–	significantly decrease or inhibit; also recorded: decrease	effectively decrease
